Assay results reported in patent US20060167057A1, “Compounds for the treatment of CNS and amyloid associated diseases” (priority 2004, published 2006).

Biological target: T1, L1 transport system (large neutral amino acid carrier, L1-system carrier) (Rattus norvegicus, UniProt Q63016)
T1 construct: functionality of their endogenous transporters such as the L1-system carrier; endogenous in cells; host or cells: rat primary cerebrovascular (brain microcapillary) endothelial cells, RBEC
Test: Competitive binding assay to the brain L1 transport system (L-[U-14C]phenylalanine on rat primary cerebrovascular endothelial cells)
Conditions: for Status of Binding: compounds of Example 4, 10^−6, 10^−5 and 10^−4, Δ versus phenylalanine
Method in brief: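 Cells were primary cerebral microvascular endothelial cells from cortices of 24-day-old rats, isolated by collagenase/DNAse digestion, dextran separation and mesh filtration.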

T1 sequence (Q63016 whole entry): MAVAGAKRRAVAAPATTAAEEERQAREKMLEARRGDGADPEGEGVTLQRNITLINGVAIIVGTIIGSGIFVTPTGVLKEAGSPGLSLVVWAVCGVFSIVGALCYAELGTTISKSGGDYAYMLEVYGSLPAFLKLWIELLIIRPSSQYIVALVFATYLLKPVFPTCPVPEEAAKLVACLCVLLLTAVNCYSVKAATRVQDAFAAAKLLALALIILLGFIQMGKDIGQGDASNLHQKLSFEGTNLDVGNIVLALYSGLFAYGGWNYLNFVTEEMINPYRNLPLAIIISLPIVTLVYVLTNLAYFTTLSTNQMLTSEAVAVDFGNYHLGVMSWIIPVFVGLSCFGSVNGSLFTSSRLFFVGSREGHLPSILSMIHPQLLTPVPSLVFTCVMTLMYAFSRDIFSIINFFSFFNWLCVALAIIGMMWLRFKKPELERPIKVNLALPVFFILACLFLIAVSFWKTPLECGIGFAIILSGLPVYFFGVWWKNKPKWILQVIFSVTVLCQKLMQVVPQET
T1 sequence (Q794F9 whole entry partner): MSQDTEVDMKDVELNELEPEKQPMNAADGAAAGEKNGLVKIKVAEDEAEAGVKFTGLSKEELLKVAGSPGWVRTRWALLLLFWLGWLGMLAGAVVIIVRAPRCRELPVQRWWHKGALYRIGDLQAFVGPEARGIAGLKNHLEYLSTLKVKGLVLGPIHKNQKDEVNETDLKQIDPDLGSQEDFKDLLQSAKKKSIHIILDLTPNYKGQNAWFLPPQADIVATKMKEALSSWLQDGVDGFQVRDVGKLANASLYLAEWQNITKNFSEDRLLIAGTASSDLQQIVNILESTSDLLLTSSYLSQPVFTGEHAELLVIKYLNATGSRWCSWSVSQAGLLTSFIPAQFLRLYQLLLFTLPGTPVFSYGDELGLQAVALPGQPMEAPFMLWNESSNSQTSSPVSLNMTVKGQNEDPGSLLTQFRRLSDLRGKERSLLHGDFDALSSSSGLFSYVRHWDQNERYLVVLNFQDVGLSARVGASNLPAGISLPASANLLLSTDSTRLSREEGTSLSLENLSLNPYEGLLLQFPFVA

| Comparison with the Binding of Phenylalanine (10^−4 M) | Comparison with the Binding of Phenylalanine (10^−5 M) | Comparison with the Binding of Phenylalanine (10^−6 M) | SMILES | Status of Binding |
| --- | --- | --- | --- | --- |
| – | – | – | N[C@@H](Cc1cccc(C[S+]([O-])c2nnnn2-c2ccccc2)n1)C(=O)O (stereo partly shown) [drawing 479] | 1 (1: −10 > Δ > −50%, lower binding affinity than phenylalanine) |
| 1 (0 < X < 10 Rank 1) | 1 (0 < X < 10 Rank 1) | 1 (0 < X < 10 Rank 1) | NC(Cc1cccc(CSc2nc3cc([N+](=O)[O-])ccc3[nH]2)n1)C(=O)O (stereo not shown) [Compound 94] | – |
| 0 (X < 0 Rank 0) | 1 (0 < X < 10 Rank 1) | 0 (X < 0 Rank 0) | NC(Cc1cccc(CSc2nccc(O)n2)c1)C(=O)O (stereo not shown) [Compound 16] | – |
| 2 (10 < X < 20 Rank 2) | 3 (X > 20 Rank 3) | 3 (X > 20 Rank 3) | NC(Cc1cccc(CSc2nc(-c3ccccc3)c(-c3ccccc3)o2)c1)C(=O)O (stereo not shown) [Compound 104] | – |
| 0 (X < 0 Rank 0) | 0 (X < 0 Rank 0) | 3 (X > 20 Rank 3) | NC(Cc1cccc(CSc2cncc3c(C(F)(F)F)cccc23)n1)C(=O)O (stereo not shown) [Compound 24] | – |
| 0 (X < 0 Rank 0) | 0 (X < 0 Rank 0) | 1 (0 < X < 10 Rank 1) | NC(Cc1cccc(-c2cccc(N3CCc4ccccc4C3)c2)c1)C(=O)O (stereo not shown) [Compound 115] | – |
| 1 (0 < X < 10 Rank 1) | 1 (0 < X < 10 Rank 1) | 1 (0 < X < 10 Rank 1) | CN(C)CCn1nnnc1SCc1cccc(CC(N)C(=O)O)n1 (stereo not shown) [Compound 88] | – |
| 0 (X < 0 Rank 0) | 2 (10 < X < 20 Rank 2) | 0 (X < 0 Rank 0) | NC(Cc1cccc(CSc2ccnc3cc(C(F)(F)F)ccc23)n1)C(=O)O (stereo not shown) [Compound 45] | – |
| 2 (10 < X < 20 Rank 2) | 3 (X > 20 Rank 3) | 3 (X > 20 Rank 3) | Nc1ccnc(SCc2cccc(CC(N)C(=O)O)n2)n1 (stereo not shown) [Compound 38] | – |
| 0 (X < 0 Rank 0) | 0 (X < 0 Rank 0) | 1 (0 < X < 10 Rank 1) | NC(Cc1cccc(-c2cccc(Sc3nc(-c4ccccc4)c(-c4ccccc4)o3)c2)c1)C(=O)O (stereo not shown) [Compound 134] | – |
| 2 (10 < X < 20 Rank 2) | 3 (X > 20 Rank 3) | 2 (10 < X < 20 Rank 2) | COc1ccc2[nH]c(SCc3cccc(CC(N)C(=O)O)c3)nc2c1 (stereo not shown) [Compound 135] | – |
| 3 (X > 20 Rank 3) | 3 (X > 20 Rank 3) | 3 (X > 20 Rank 3) | NC(Cc1cccc(CSc2nnnn2-c2ccccc2)c1)C(=O)O (stereo not shown) [Compound 8] | – |
| 2 (10 < X < 20 Rank 2) | 2 (10 < X < 20 Rank 2) | 2 (10 < X < 20 Rank 2) | CN(C)CCn1nnnc1Sc1cccc(-c2cccc(CC(N)C(=O)O)c2)c1 (stereo not shown) [Compound 103] | – |
| 2 (10 < X < 20 Rank 2) | 3 (X > 20 Rank 3) | 3 (X > 20 Rank 3) | CCOC(=O)c1cnc(SCc2cccc(CC(N)C(=O)O)c2)[nH]c1=O (stereo not shown) [Compound 131] | – |
| 0 (X < 0 Rank 0) | 0 (X < 0 Rank 0) | 1 (0 < X < 10 Rank 1) | N[C@@H](Cc1ccccc1)C(=O)NC(Cc1cccc(CSc2cncc3c(C(F)(F)F)cccc23)n1)C(=O)O (stereo partly shown) [Compound 26] | – |
| 2 (10 < X < 20 Rank 2) | 0 (X < 0 Rank 0) | 2 (10 < X < 20 Rank 2) | O=C(Nc1ccc(-c2ccccc2)cc1)NC(Cc1cccc(CSc2cncc3c(C(F)(F)F)cccc23)n1)C(=O)O (stereo not shown) [Compound 61] | – |
| 2 (10 < X < 20 Rank 2) | 3 (X > 20 Rank 3) | 2 (10 < X < 20 Rank 2) | NC(Cc1cccc(CSc2nnc(-c3ccccc3)o2)c1)C(=O)O (stereo not shown) [Compound 1] | – |
| 1 (0 < X < 10 Rank 1) | 2 (10 < X < 20 Rank 2) | 1 (0 < X < 10 Rank 1) | NC(Cc1cccc(CN2CCN(c3cccc(Cl)c3)CC2)n1)C(=O)O (stereo not shown) [Compound 86] | – |
| 2 (10 < X < 20 Rank 2) | 3 (X > 20 Rank 3) | 3 (X > 20 Rank 3) | NC(Cc1cccc(-c2cccc(N3CCN(c4cccc(Cl)c4)CC3)c2)c1)C(=O)O (stereo not shown) [Compound 101] | – |
| 0 (X < 0 Rank 0) | 0 (X < 0 Rank 0) | 2 (10 < X < 20 Rank 2) | NC(=O)C(N)Cc1cccc(CSc2nc3ccccc3o2)n1 (stereo not shown) [Compound 31] | – |
| 0 (X < 0 Rank 0) | 0 (X < 0 Rank 0) | 2 (10 < X < 20 Rank 2) | NC(Cc1ccc(-c2ccc(CSc3nnnn3CC(=O)O)cc2)cc1)C(=O)O (stereo not shown) [Compound 153] | – |
| 2 (10 < X < 20 Rank 2) | 3 (X > 20 Rank 3) | 0 (X < 0 Rank 0) | NC(Cc1cccc(CSc2nc3cc([N+](=O)[O-])ccc3[nH]2)c1)C(=O)O (stereo not shown) [Compound 79] | – |
| – | – | – | N[C@@H](Cc1cccc(CSc2nnc(-c3ccccc3)[nH]2)c1)C(=O)O [drawing 470] | 2 (2: 10% ≧ Δ ≧ −10% similar binding affinity to phenylalanine) |
| – | – | – | CN(C)CCn1nnnc1SCc1cccc(C[C@H](N)C(=O)O)c1 [drawing 485] | 1 (1: −10 > Δ > −50%, lower binding affinity than phenylalanine) |
| – | – | – | N[C@@H](Cc1cccc(C[S+]([O-])c2nnc(-c3ccccc3)[nH]2)c1)C(=O)O (stereo partly shown) [drawing 482] | 1 (1: −10 > Δ > −50%, lower binding affinity than phenylalanine) |
| 0 (X < 0 Rank 0) | 0 (X < 0 Rank 0) | 3 (X > 20 Rank 3) | NC(=O)C(N)Cc1cccc(CSc2ncc[nH]2)c1 (stereo not shown) [Compound 6] | – |
| 0 (X < 0 Rank 0) | 0 (X < 0 Rank 0) | 3 (X > 20 Rank 3) | Cc1ccnc(Sc2cccc(-c3cccc(CC(N)C(=O)O)c3)c2)n1 (stereo not shown) [Compound 136] | – |
| 0 (X < 0 Rank 0) | 1 (0 < X < 10 Rank 1) | 1 (0 < X < 10 Rank 1) | Cc1nnc(SCc2cccc(CC(N)C(=O)O)n2)s1 (stereo not shown) [Compound 96] | – |
| 2 (10 < X < 20 Rank 2) | 3 (X > 20 Rank 3) | 3 (X > 20 Rank 3) | CC(=O)c1ccc(N2CCN(Cc3cccc(CC(N)C(=O)O)c3)CC2)cc1 (stereo not shown) [Compound 112] | – |
